Data on 29 compounds can be found in patent publication US20120088746A1, “AMIDE DERIVATIVES AS ION-CHANNEL LIGANDS AND PHARMACEUTICAL COMPOSITIONS AND METHODS OF USING THE SAME” (PFIZER INC., priority 2006, published 2012).

For this assay, the target named is human VR1 (Homo sapiens, UniProt Q8NER1). The assay can be described thus: Acid stimulation assay (acid-induced intracellular calcium change, FDSS 6000). It counts as cell-based. Particulars: final assay buffer pH5.8, 15 min pre-incubation, read-out: IC50 (nM) Low pH. From the text: VR1 antagonistic activity can be determined by the Ca^2+ imaging assay using human VR1 highly expressing cells. The cells that highly express human VR1 receptors are obtainable from several different conventional methods. The one standard method is cloning from human Dorsal Root Ganglion (DRG) or kidney according to the methods such as described in the journal article; Nature, 389, pp 816-824, 1997. Alternatively VR1 receptors highly expressing human keratinocytes are also known and published in the journal article (Biochemical and Biophysical Research Communications, 291, pp 124-129, 2002). […] Furthermore, the method to up regulate human VR1 gene, which is usually a silent gene or don't produce detectable level of VR1 receptors, is also available to obtain propriety cells. Such genetic modification method was described in detail; Nat. Biotechnol., 19, pp 440-445, 2001.
The cells that express human VR1 receptors were maintained in culture flask at 37° C. in an environment containing 5% CO2 until use in the assay. The intracellular Ca^2+ imaging assay to determine VR1 antagonistic activities were done by following procedures.
The culture medium was removed from the flask and fura-2/AM fluorescent calcium indicator was added to the flask at a concentration of 5 μM in the medium. The flask was placed in CO2 incubator and incubated for 1 hour. Then the cells expressing the human VR1 receptors were detached from the flask follow by washing with phosphate buffer saline, PBS(−) and re-suspended in assay buffer. The 80 tit of aliquot of cell suspension (3.75×10^5 cells/ml) was added to the assay plate and the cells were spun down by centrifuge (950 rpm, 20° C., 3 minutes).
The Acid-induced changes in the intracellular calcium concentration were monitored using FDSS 6000 (Hamamatsu Photonics, Japan), a fluorometric imaging system. The cell suspension in resting buffer (HBSS supplemented with 10 mM HEPES, pH 7.4) were pre-incubated with varying concentrations of the test compounds or resting buffer (buffer control) for 15 minutes at room temperature under the dark condition. The cells were automatically added the stimulating solution (HBSS supplemented with MES, final assay buffer pH5.8) by the FDSS 6000.
The Acid-induced changes in the intracellular calcium concentration were monitored using FDSS 6000 (Hamamatsu Photonics, Japan), a fluorometric imaging system. The cell suspension in resting buffer (HBSS supplemented with 10 mM HEPES, pH 7.4) was pre-incubated with varying concentrations of the test compounds or resting buffer (buffer control) for 15 minutes at room temperature under dark conditions. The cells were automatically added to the stimulating solution (HBSS supplemented with MES, final assay buffer pH5.8) by the FDSS 6000.

Structures can show the parent of a compound that is named as a salt.

Sequence of human VR1 (Q8NER1 whole entry): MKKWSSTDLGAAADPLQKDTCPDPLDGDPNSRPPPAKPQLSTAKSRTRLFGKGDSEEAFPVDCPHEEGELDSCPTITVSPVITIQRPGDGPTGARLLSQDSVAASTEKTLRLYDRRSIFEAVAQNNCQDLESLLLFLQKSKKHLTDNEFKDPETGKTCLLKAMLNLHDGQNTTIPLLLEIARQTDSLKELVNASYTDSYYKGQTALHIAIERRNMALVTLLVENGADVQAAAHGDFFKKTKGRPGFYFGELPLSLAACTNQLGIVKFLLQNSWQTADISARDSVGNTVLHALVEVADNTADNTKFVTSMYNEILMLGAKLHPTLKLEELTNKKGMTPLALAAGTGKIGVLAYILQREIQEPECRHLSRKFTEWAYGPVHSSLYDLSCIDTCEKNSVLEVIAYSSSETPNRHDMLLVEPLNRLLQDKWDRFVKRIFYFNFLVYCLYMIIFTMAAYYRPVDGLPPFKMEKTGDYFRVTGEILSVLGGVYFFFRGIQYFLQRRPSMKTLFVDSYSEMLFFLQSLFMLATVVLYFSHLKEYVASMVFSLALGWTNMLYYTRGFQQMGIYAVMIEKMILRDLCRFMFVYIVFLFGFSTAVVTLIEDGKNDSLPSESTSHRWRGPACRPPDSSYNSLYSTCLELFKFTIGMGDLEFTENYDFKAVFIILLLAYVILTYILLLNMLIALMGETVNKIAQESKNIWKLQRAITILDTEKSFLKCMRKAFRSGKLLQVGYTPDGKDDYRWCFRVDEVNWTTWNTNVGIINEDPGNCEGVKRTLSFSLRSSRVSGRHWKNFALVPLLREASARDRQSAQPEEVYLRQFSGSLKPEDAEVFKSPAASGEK

With `Cc1cc([C@@H](C)NC(=O)c2ccc3cc(C(C)(C)C)ccc3c2)ccc1NS(C)(=O)=O` [Example 1, 6-TERT-BUTYL-N-((1R)-1-{3-METHYL-4-[(METHYLSULFONYL)AMINO]PHENYL}ETHYL)-2-NAPHTHAMIDE], the IC50 was found to be 3 nM.
For `Cc1nc([C@@H](C)NC(=O)c2ccc3cc(C(C)(C)C)ccc3c2)ccc1NS(C)(=O)=O` [Example 2, 6-TERT-BUTYL-N-((1R)-1-{6-METHYL-5-[(METHYLSULFONYL)AMINO]PYRIDIN-2-YL}ETHYL)-2-NAPHTHAMIDE], the IC50 turned out to be 4 nM.
Next, `C[C@@H](NC(=O)c1ccc2cc(C(F)(F)F)ccc2n1)c1cc(F)c(NS(C)(=O)=O)c(F)c1` [Example 3, ((1R)-1-{3,5-DIFLUORO-4-[(METHYLSULFONYL)AMINO]PHENYL}ETHYL)-6-(TRIFLUORO-METHYL)QUINOLINE-2-CARBOXAMIDE]: 4 nM.
For `Cc1cc([C@@H](C)NC(=O)c2cnc3cc(C(F)(F)F)ccc3c2)ccc1NS(C)(=O)=O` [Example 4, (1R)-1-{3-METHYL-4-[(METHYLSULFONYL)AMINO]PHENYL}ETHYL)-7-(TRIFLUOROMETHYL)QUINOLINE-3-CARBOXAMIDE], the concentration for half-maximal inhibition (IC50) stood at 100 nM.
As to `C[C@@H](NC(=O)c1ccc2cc(C(C)(C)C)ccc2n1)c1cc(F)c(NS(C)(=O)=O)c(F)c1` [Example 7, 6-TERT-BUTYL-N-((1R)-1-{3,5-DIFLUORO-4-[(METHYLSULFONYL)AMINO]PHENYL}-ETHYL)QUINOLINE-2-CARBOXAMIDE], the 50% inhibitory concentration (IC50) was found to be 1 nM.
As for `Cc1cc([C@@H](C)NC(=O)c2ccc3cc(C(C)C)ccc3n2)ccc1NS(C)(=O)=O` [Example 9, 6-ISOPROPYL-N-((1R)-1-{3-METHYL-4-[(METHYLSULFONYL)AMINO]PHENYL}ETHYL)-QUINOLINE-2-CARBOXAMIDE], the half-maximal inhibitory concentration (IC50) was 714 nM.
On to `Cc1cc([C@@H](C)NC(=O)c2cnc3cc(C(F)(F)F)ccc3c2C)ccc1NS(C)(=O)=O` [Example 11, 4-METHYL-N-((1R)-1-{3-METHYL-4-[(METHYLSULFONYL)AMINO]PHENYL}ETHYL)-7-(TRIFLUOROMETHYL)QUINOLINE-3-CARBOXAMIDE], for which the 50% inhibitory concentration (IC50) worked out at 240 nM.
Turning to `Cc1cc([C@@H](C)NC(=O)c2ccc3cc(Br)ccc3n2)ccc1NS(C)(=O)=O` [Example 12, 6-BROMO-N-((1R)-1-{3-METHYL-4-[(METHYLSULFONYL)AMINO]PHENYL}ETHYL)-QUINOLINE-2-CARBOXAMIDE], the half-maximal inhibitory concentration (IC50) was determined as 444 nM.
As for `Cc1cc([C@@H](C)NC(=O)c2ccc3cc(C(C)(C)C)ccc3c2)c(F)cc1NS(C)(=O)=O` [Example 13, 6-TERT-BUTYL-N-((1R)-1-{2-FLUORO-5-METHYL-4-[(METHYLSULFONYL)AMINO]PHENYL}-ETHYL)-2-NAPHTHAMIDE], the IC50 is 127 nM.
As to `Cc1cc([C@@H](C)NC(=O)c2ccc3cc(C(C)(C)C)ccc3n2)c(F)cc1NS(C)(=O)=O` [Example 14, 6-TERT-BUTYL-N-((1R)-1-{2-FLUORO-5-METHYL-4-[(METHYLSULFONYL)AMINO]PHENYL}-ETHYL)QUINOLINE-2-CARBOXAMIDE], the IC50 worked out at 288 nM.
Take `C[C@@H](NC(=O)c1ccc2nc(C(C)(C)C)ccc2c1)c1cc(F)c(NS(C)(=O)=O)c(F)c1` [Example 15, 2-TERT-BUTYL-N-((1R)-1-{3,5-DIFLUORO-4-[(METHYLSULFONYL)AMINO]PHENYL}ETHYL)-QUINOLINE-6-CARBOXAMIDE HYDROCHLORIDE]: the IC50 is 24 nM.
As to `Cc1cc([C@@H](C)NC(=O)c2ccc3cc(C(C)(C)O)ccc3n2)ccc1NS(C)(=O)=O` [Example 16], the IC50 was found to be 71 nM.
With `Cc1cc([C@@H](C)NC(=O)c2ccc3cc(Br)ccc3c2)ccc1NS(C)(=O)=O` [Example 17, 6-BROMONAPHTHALENE-2-CARBOXYLIC ACID [(R)-1-(4-METHANESULFONYLAMINO-3-METHYLPHENYL)ETHYL]AMIDE], the IC50 is 14 nM.
Next, `Cc1cc([C@@H](C)NC(=O)c2ccc3cc(F)ccc3c2)ccc1NS(C)(=O)=O` [Example 18, 6-FLUORONAPHTHALENE-2-CARBOXYLIC ACID [(R)-1-(4-METHANESULFONYL-AMINO-3-METHYLPHENYL)ETHYL]AMIDE]: 83 nM.
With `Cc1cc([C@@H](C)NC(=O)c2ccc3ccccc3c2)ccc1NS(C)(=O)=O` [Example 19, NAPHTHALENE-2-CARBOXYLIC ACID [(R)-1-(4-METHANESULFONYLAMINO-3-METHYLPHENYL)ETHYL]AMIDE], the IC50 was 63 nM.
As for `COc1ccc2cc(C(=O)N[C@H](C)c3ccc(NS(C)(=O)=O)c(C)c3)ccc2c1` [Example 20, 6-METHOXYNAPHTHALENE-2-CARBOXYLIC ACID [(R)-1-(4-METHANESULFONYL-AMINO-3-METHYLPHENYL)ETHYL]AMIDE], the half-maximal inhibitory concentration (IC50) was 8 nM.
The value for `Cc1cc([C@@H](C)NC(=O)c2ccc3cc(N4CCCC4)ccc3c2)ccc1NS(C)(=O)=O` [Example 21, 6-PYRROLIDIN-1-YL-NAPHTHALENE-2-CARBOXYLIC ACID [(R)-1-(4-METHANESULFONYL-AMINO-3-METHYLPHENYL)ETHYL]AMIDE] was 44 nM; that for `Cc1cc([C@@H](C)NC(=O)c2ccc3cc(C4CC4)ccc3c2)ccc1NS(C)(=O)=O` [Example 22, 6-CYCLOPROPYLNAPHTHALENE-2-CARBOXYLIC ACID [(R)-1-(4-METHANESULFONYL-AMINO-3-METHYLPHENYL)ETHYL]AMIDE] was 3 nM.
As to `Cc1cc([C@@H](C)NC(=O)c2cc3ccc(Cl)cc3nc2C)ccc1NS(C)(=O)=O` [Example 23, 7-CHLORO-2-METHYL-QUINOLINE-3-CARBOXYLIC ACID [(R)-1-(4-METHANESULFONYL-AMINO-3-METHYLPHENYL)ETHYL]AMIDE], the IC50 amounted to 379 nM.
As to `C[C@@H](NC(=O)c1cnc2cc(C(F)(F)F)ccc2c1)c1cc(F)c(NS(C)(=O)=O)c(F)c1` [Example 27, N-((1R)-1-{3,5-DIFLUORO-4-[(METHYLSULFONYL)AMINO]PHENYL}ETHYL)-7-(TRIFLUOROMETHYL)QUINOLINE-3-CARBOXAMIDE], the IC50 came out at 105 nM.
On to `CC(=O)c1ccc2nc(C(=O)N[C@H](C)c3ccc(NS(C)(=O)=O)c(C)c3)ccc2c1` [Example 28, 6-ACETYL-N-((1R)-1-{3-METHYL-4-[(METHYLSULFONYL)AMINO]PHENYL}ETHYL)-QUINOLINE-2-CARBOXAMIDE], for which the half-inhibitory concentration (IC50) was 187 nM.
With `Cc1cc([C@@H](C)NC(=O)c2cnc3ccc(C(C)(C)C)cc3c2)ccc1NS(C)(=O)=O` [Example 29, 6-TERT-BUTYL-N-((1R)-1-{3-METHYL-4-[(METHYLSULFONYL)AMINO]PHENYL}ETHYL)-QUINOLINE-3-CARBOXAMIDE], the concentration for half-maximal inhibition (IC50) turned out to be 231 nM.
For `CC(C)c1ccc2cc(C(=O)N[C@H](C)c3cc(F)c(NS(C)(=O)=O)c(F)c3)ccc2n1` [Example 31, N-((1R)-1-{3,5-DIFLUORO-4-[(METHYLSULFONYL)AMINO]PHENYL}ETHYL)-2-ISOPROPYL-QUINOLINE-6-CARBOXAMIDE], the half-inhibitory concentration (IC50) is 47 nM.
On to `Cc1cc([C@@H](C)NC(=O)c2ccc3nc(C(F)(F)F)ccc3c2)c(F)cc1NS(C)(=O)=O` [Example 32, N-((1R)-1-{2-FLUORO-5-METHYL-4-[(METHYLSULFONYL)AMINO]PHENYL}ETHYL)-2-(TRIFLUOROMETHYL)QUINOLINE-6-CARBOXAMIDE], for which the half-maximal inhibitory concentration (IC50) was determined as 6 nM.
With `Cc1cc([C@@H](C)NC(=O)c2cnc3cc(C(C)(C)C)ccc3c2)ccc1NS(C)(=O)=O` [Example 33, 7-TERT-BUTYL-N-((1R)-1-{3-METHYL-4-[(METHYLSULFONYL)AMINO]PHENYL}ETHYL)-QUINOLINE-3-CARBOXAMIDE], the concentration for half-maximal inhibition (IC50) came out at 56 nM.
Take `C[C@@H](NC(=O)c1cnc2cc(C(F)(F)F)ccc2c1)c1ccc(NS(C)(=O)=O)c(F)c1` [Example 34, N-((1R)-1-{3-FLUORO-4-[(METHYLSULFONYL)AMINO]PHENYL}ETHYL)-7-(TRIFLUORO-METHYL)QUINOLINE-3-CARBOXAMIDE]: the concentration for half-maximal inhibition (IC50) is 26 nM.
Take `Cc1cc([C@@H](C)NC(=O)c2ccc3nc(C(C)C)ccc3c2)ccc1NS(C)(=O)=O` [Example 35, 2-ISOPROPYL-N-((1R)-1-{3-METHYL-4-[(METHYLSULFONYL)AMINO]PHENYL}ETHYL)-QUINOLINE-6-CARBOXAMIDE]: the IC50 is 5 nM.
In the case of `CC(C)c1ccc2cc(C(=O)N[C@H](C)c3cc(F)c(NS(C)(=O)=O)c(F)c3)cnc2c1` [Example 39, N-((1R)-1-{3,5-DIFLUORO-4-[(METHYLSULFONYL)AMINO]PHENYL}ETHYL)-7-ISOPROPYL-QUINOLINE-3-CARBOXAMIDE], the IC50 was 13 nM.
Consider `Cc1cc([C@@H](C)NC(=O)c2ccc3cc(C(C)(C)C)ccc3c2)ncc1NS(C)(=O)=O` [Example 40, 6-TERT-BUTYL-N-((1R)-1-{4-METHYL-5-[(METHYLSULFONYL)AMINO]PYRIDIN-2-YL}ETHYL)-2-NAPHTHAMIDE], for which the IC50 was found to be 31 nM.
